For orientation: Ki means a dissociation constant, usually derived from enzyme kinetics or from competition with a known ligand. A lower Ki goes with tighter binding.

Values joined by “and” are separate entries in the source; they are usually repeats but may differ in a detail not shown here. Identical values can stand only once.

These results are taken from BindingDB's records for PubMed 2746503 (Universit&Eacute, 1989).

In test [1] the target is T1, Muscarinic acetylcholine receptor M2 (Sus scrofa, UniProt P06199).
T1 sequence (P06199 whole entry): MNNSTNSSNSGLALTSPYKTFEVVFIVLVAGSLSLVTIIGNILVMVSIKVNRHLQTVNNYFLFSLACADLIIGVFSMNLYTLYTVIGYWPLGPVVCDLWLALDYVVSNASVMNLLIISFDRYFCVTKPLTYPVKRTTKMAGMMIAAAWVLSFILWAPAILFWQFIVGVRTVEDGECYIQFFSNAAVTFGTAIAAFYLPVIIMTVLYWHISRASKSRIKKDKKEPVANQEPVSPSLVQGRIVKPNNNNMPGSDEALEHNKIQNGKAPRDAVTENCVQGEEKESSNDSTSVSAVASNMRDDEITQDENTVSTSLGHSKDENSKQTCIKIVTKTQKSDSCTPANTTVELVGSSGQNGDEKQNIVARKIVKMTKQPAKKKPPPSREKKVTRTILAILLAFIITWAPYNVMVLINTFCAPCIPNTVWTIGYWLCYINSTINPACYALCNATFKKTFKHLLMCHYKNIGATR

For test [2], the target named is T2, Muscarinic acetylcholine receptor M2 (Homo sapiens, UniProt P08172).
T2 sequence (P08172 whole entry): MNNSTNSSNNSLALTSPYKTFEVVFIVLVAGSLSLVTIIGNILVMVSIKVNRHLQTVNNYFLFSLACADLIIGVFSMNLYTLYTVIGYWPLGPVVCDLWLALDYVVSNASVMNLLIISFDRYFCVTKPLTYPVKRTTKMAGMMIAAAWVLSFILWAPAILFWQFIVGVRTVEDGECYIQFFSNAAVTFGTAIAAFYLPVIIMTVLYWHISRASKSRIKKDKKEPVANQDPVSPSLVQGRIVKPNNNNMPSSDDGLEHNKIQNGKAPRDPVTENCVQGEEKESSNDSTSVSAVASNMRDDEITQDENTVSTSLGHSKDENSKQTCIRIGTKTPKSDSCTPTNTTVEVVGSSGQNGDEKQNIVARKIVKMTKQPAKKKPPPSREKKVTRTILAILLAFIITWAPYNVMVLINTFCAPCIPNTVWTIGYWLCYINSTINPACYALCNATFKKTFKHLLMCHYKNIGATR

Test [3] concerns the target T3, Muscarinic acetylcholine receptor M2 (Rattus norvegicus, UniProt P10980).
T3 sequence (P10980 whole entry): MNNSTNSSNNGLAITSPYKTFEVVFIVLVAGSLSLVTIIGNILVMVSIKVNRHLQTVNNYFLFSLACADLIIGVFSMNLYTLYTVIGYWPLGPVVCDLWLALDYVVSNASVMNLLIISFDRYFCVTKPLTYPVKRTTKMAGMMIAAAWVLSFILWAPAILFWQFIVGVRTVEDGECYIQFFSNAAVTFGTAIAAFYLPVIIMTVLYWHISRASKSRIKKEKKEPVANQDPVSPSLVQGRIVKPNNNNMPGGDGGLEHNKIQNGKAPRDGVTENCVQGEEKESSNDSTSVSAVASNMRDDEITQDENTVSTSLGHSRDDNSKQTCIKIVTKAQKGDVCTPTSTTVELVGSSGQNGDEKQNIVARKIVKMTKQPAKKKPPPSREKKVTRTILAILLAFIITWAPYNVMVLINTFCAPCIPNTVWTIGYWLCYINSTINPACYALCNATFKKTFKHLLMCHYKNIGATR

In the case of `CN1CCN(CC(=O)N2c3ccccc3C(=O)Nc3cccnc32)CC1` [11-[(4-methylpiperazin-1-yl)acetyl]-5,11-dihydro-6H-pyrido[2,3-b][1,4]benzodiazepin-6-one], the Ki in test [1] is 80.7 nM and 276 nM.
Regarding `CCN(CC)CC1CCCCN1CC(=O)N1c2ccccc2C(=O)Nc2cccnc21` (centres undefined) [(AF-DX 116) 11-[2-(2-Diethylaminomethyl-piperidin-1-yl)-acetyl]-5,11-dihydro-benzo[e]pyrido[3,2-b][1,4]diazepin-6-one], the Ki in test [2] is 99.6 nM and 17.4 nM; in test [3], 31.1 nM and 26.9 nM; in test [1], 28.8 nM and 21.8 nM.
